Reference: patent US9771370B2, “Compounds for the inhibition of indoleamine-2,3-dioxygenase” (Merck Patent GmbH, priority 2014, dated 2017)

Molecular target: Recombinant human IDO (Homo sapiens, UniProt P14902)
Assay: Bridge-IT tryptophan fluorescence assay of human IDO-1 inhibition
Type: biochemical
Conditions: recombinant human IDO 7.5 nM, L-tryptophan
In short: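 Two protocol variants: 100 μM L-Trp for 90 min at 37 °C, or 30 min enzyme–compound pre-incubation at 25 °C, then 50 μM L-Trp for 60 min at 25 °C. Reaction stopped in Bridge-IT solution A for 30 min at 30 °C.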

Sequence of Recombinant human IDO (P14902 whole entry): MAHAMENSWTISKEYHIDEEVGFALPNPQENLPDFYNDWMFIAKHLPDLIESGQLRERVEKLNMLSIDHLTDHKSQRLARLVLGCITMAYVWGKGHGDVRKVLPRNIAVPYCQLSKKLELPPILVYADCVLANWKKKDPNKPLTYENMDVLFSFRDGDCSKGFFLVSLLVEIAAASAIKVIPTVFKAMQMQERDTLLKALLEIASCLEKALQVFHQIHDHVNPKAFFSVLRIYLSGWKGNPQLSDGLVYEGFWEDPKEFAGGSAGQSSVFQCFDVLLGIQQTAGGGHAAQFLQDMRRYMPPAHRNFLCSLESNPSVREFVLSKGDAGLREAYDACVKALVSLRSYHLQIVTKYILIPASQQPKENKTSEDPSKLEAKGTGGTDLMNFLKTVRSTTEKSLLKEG

SMILES: COc1ccc2c(n1)C(CC(O)C1CCC(C)(C)CC1)n1cncc1-2 (single isomer, unassigned) [Compound 40b, 1-(4,4-dimethylcyclohexyl)-2-[10-methoxy-4,6,9-triazatricyclo[6.4.0.0^[2,6]]dodeca-1(8),2,4,9,11-pentaen-7-yl]ethan-1-ol]
- IC50: 100 to 1000 nM

SMILES: COc1cccc2c1-c1cncn1C2CCC1(F)CCCCC1 (single isomer, unassigned) [Compound 42a, 5-(2-(1-fluorocyclohexyl)ethyl)-9-methoxy-5H-imidazo[5,1-a]isoindole]
- IC50: > 1000 nM

SMILES: COc1cccc2c1-c1cncn1C2CCC1(F)CCCCC1 (single isomer, unassigned) [Compound 42b, 5-(2-(1-fluorocyclohexyl)ethyl)-9-methoxy-5H-imidazo[5,1-a]isoindole]
- IC50: 100 to 1000 nM

SMILES: Oc1cccc2c1-c1cncn1C2CCC1(F)CCCCC1 (single isomer, unassigned) [Compound 43a, 5-(2-(1-fluorocyclohexyl)ethyl)-5H-imidazo[5,1-a]isoindol-9-ol]
- IC50: > 1000 nM

SMILES: Oc1cccc2c1-c1cncn1C2CCC1(F)CCCCC1 (single isomer, unassigned) [Compound 43b, 5-(2-(1-fluorocyclohexyl)ethyl)-5H-imidazo[5,1-a]isoindol-9-ol]
- IC50: < 100 nM

SMILES: COc1ccc(F)c2c1-c1cncn1C2CCC1(F)CCCCC1 (single isomer, unassigned) [Compound 45a, 6-fluoro-5-(2-(1-fluorocyclohexyl)ethyl)-9-methoxy-5H-imidazo[5,1-a]isoindole]
- IC50: > 1000 nM

SMILES: COc1ccc(F)c2c1-c1cncn1C2CCC1(F)CCCCC1 (single isomer, unassigned) [Compound 45b, 6-fluoro-5-(2-(1-fluorocyclohexyl)ethyl)-9-methoxy-5H-imidazo[5,1-a]isoindole]
- IC50: > 1000 nM

SMILES: CC1(C)CCC(F)(CCC2c3ncccc3-c3cncn32)CC1 (single isomer, unassigned) [Compound 48a, 7-[2-(1-fluoro-4,4-dimethylcyclohexyl)ethyl]-4,6,9-triazatricyclo[6.4.0.0^[2,6]]dodeca-1(8),2,4,9,11-pentaene]
- IC50: > 1000 nM

SMILES: CC1(C)CCC(F)(CCC2c3ncccc3-c3cncn32)CC1 (single isomer, unassigned) [Compound 48b, 7-[2-(1-fluoro-4,4-dimethylcyclohexyl)ethyl]-4,6,9-triazatricyclo[6.4.0.0^[2,6]]dodeca-1(8),2,4,9,11-pentaene]
- IC50: > 1000 nM

SMILES: OC(CC1c2nc(Cl)ccc2-c2cncn21)C1CCC(F)(F)CC1 (single isomer, unassigned) [Compound 52a, 2-[10-chloro-4,6,9-triazatricyclo[6.4.0.0^[2,6]]dodeca-1(8),2,4,9,11-pentaen-7-yl]-1-(4,4-difluorocyclohexyl)ethan-1-ol]
- IC50: 100 to 1000 nM

SMILES: OC(CC1c2nc(Cl)ccc2-c2cncn21)C1CCC(F)(F)CC1 (single isomer, unassigned) [Compound 52c, 2-[10-chloro-4,6,9-triazatricyclo[6.4.0.0^[2,6]]dodeca-1(8),2,4,9,11-pentaen-7-yl]-1-(4,4-difluorocyclohexyl)ethan-1-ol]
- IC50: > 1000 nM

SMILES: COc1ccc2c(n1)C(CC(O)C1CCC3(CC1)CC3)n1cncc1-2 (single isomer, unassigned) [Compound 53b, 2-[10-methoxy-4,6,9-triazatricyclo[6.4.0.0^[2,6]]dodeca-1(8),2,4,9,11-pentaen-7-yl]-1-[spiro[2.5]octan-6-yl]ethan-1-ol]
- IC50: < 100 nM

SMILES: COc1ccc2c(n1)C(CC(O)C1CCC3(CC1)CC3)n1cncc1-2 (single isomer, unassigned) [Compound 53c, 2-[10-methoxy-4,6,9-triazatricyclo[6.4.0.0^[2,6]]dodeca-1(8),2,4,9,11-pentaen-7-yl]-1-[spiro[2.5]octan-6-yl]ethan-1-ol]
- IC50: > 1000 nM

SMILES: COc1ccc2c(n1)C(CCC1(F)CCC3(CC1)CC3)n1cncc1-2 (single isomer, unassigned) [Compound 54a, 7-(2-{6-fluorospiro[2.5]octan-6-yl}ethyl)-10-methoxy-4,6,9-triazatricyclo[6.4.0.0^[2,6]]dodeca-1(8),2,4,9,11-pentaene]
- IC50: < 100 nM

SMILES: COc1ccc2c(n1)C(CCC1(F)CCC3(CC1)CC3)n1cncc1-2 (single isomer, unassigned) [Compound 54b, 7-(2-{6-fluorospiro[2.5]octan-6-yl}ethyl)-10-methoxy-4,6,9-triazatricyclo[6.4.0.0^[2,6]]dodeca-1(8),2,4,9,11-pentaene]
- IC50: > 1000 nM

SMILES: OC(CC1c2nc(Cl)ccc2-c2cncn21)C1CCCCC1 (single isomer, unassigned) [Compound 55a, 2-[10-chloro-4,6,9-triazatricyclo[6.4.0.0^[2,6]]dodeca-1(8),2,4,9,11-pentaen-7-yl]-1-cyclohexylethan-1-ol]
- IC50: 100 to 1000 nM

SMILES: OC(CC1c2nc(Cl)ccc2-c2cncn21)C1CCCCC1 (single isomer, unassigned) [Compound 55b, 2-[10-chloro-4,6,9-triazatricyclo[6.4.0.0^[2,6]]dodeca-1(8),2,4,9,11-pentaen-7-yl]-1-cyclohexylethan-1-ol]
- IC50: > 1000 nM

SMILES: OC(CC1c2nc(Cl)ccc2-c2cncn21)C1CCCCC1 (single isomer, unassigned) [Compound 55c, 2-[10-chloro-4,6,9-triazatricyclo[6.4.0.0^[2,6]]dodeca-1(8),2,4,9,11-pentaen-7-yl]-1-cyclohexylethan-1-ol]
- IC50: > 1000 nM

SMILES: OC(CC1c2nc(Cl)ccc2-c2cncn21)C1CCCCC1 (single isomer, unassigned) [Compound 55d, 2-[10-chloro-4,6,9-triazatricyclo[6.4.0.0^[2,6]]dodeca-1(8),2,4,9,11-pentaen-7-yl]-1-cyclohexylethan-1-ol]
- IC50: 100 to 1000 nM

SMILES: OC(CC1c2nc(C3CC3)ccc2-c2cncn21)C1CCCCC1 (single isomer, unassigned) [Compound 56b, 1-cyclohexyl-2-[10-cyclopropyl-4,6,9-triazatricyclo[6.4.0.0^[2,6]]dodeca-1(8),2,4,9,11-pentaen-7-yl]ethan-1-ol]
- IC50: < 100 nM

SMILES: OC(CC1c2nc(C3CC3)ccc2-c2cncn21)C1CCCCC1 (single isomer, unassigned) [Compound 56c, 1-cyclohexyl-2-[10-cyclopropyl-4,6,9-triazatricyclo[6.4.0.0^[2,6]]dodeca-1(8),2,4,9,11-pentaen-7-yl]ethan-1-ol]
- IC50: > 1000 nM

SMILES: OC(CC1c2nc(C3CC3)ccc2-c2cncn21)C1CCC(F)(F)CC1 (single isomer, unassigned) [Compound 57b, 2-[10-cyclopropyl-4,6,9-triazatricyclo[6.4.0.0^[2,6]]dodeca-1(8),2,4,9,11-pentaen-7-yl]-1-(4,4-difluorocyclohexyl)ethan-1-ol]
- IC50: 100 to 1000 nM

SMILES: OC(CC1c2nc(C3CC3)ccc2-c2cncn21)C1CCC(F)(F)CC1 (single isomer, unassigned) [Compound 57c, 2-[10-cyclopropyl-4,6,9-triazatricyclo[6.4.0.0^[2,6]]dodeca-1(8),2,4,9,11-pentaen-7-yl]-1-(4,4-difluorocyclohexyl)ethan-1-ol]
- IC50: 100 to 1000 nM

SMILES: OC1CCC(F)(CCC2c3cc(F)ncc3-c3cncn32)CC1 (single isomer, unassigned) [Compound 58a, 4-fluoro-4-[2-[10-fluoro-4,6,11-triazatricyclo[6.4.0.0^[2,6]]dodeca-1(8),2,4,9,11-pentaen-7-yl]ethyl]cyclohexan-1-ol]
- IC50: > 1000 nM

SMILES: OC1CCC(F)(CCC2c3cc(F)ncc3-c3cncn32)CC1 (single isomer, unassigned) [Compound 58c, 4-fluoro-4-[2-[10-fluoro-4,6,11-triazatricyclo[6.4.0.0^[2,6]]dodeca-1(8),2,4,9,11-pentaen-7-yl]ethyl]cyclohexan-1-ol]
- IC50: > 1000 nM

SMILES: OC1CCC(F)(CCC2c3cc(F)ncc3-c3cncn32)CC1 (single isomer, unassigned) [Compound 58d, 4-fluoro-4-[2-[10-fluoro-4,6,11-triazatricyclo[6.4.0.0^[2,6]]dodeca-1(8),2,4,9,11-pentaen-7-yl]ethyl]cyclohexan-1-ol]
- IC50: > 1000 nM

SMILES: OCC1CCC(F)(CCC2c3ccccc3-c3cncn32)CC1 (single isomer, unassigned) [Compound 59a, [4-fluoro-4-[2-[5H-imidazo[4,3-a]isoindol-5-yl]ethyl]cyclohexyl]methanol]
- IC50: > 1000 nM

SMILES: OCC1CCC(F)(CCC2c3ccccc3-c3cncn32)CC1 (single isomer, unassigned) [Compound 59b, [4-fluoro-4-[2-[5H-imidazo[4,3-a]isoindol-5-yl]ethyl]cyclohexyl]methanol]
- IC50: < 100 nM

SMILES: OCC1CCC(F)(CCC2c3ccccc3-c3cncn32)CC1 (single isomer, unassigned) [Compound 59c, [4-fluoro-4-[2-[5H-imidazo[4,3-a]isoindol-5-yl]ethyl]cyclohexyl]methanol]
- IC50: < 100 nM

SMILES: OCC1CCC(F)(CCC2c3ccccc3-c3cncn32)CC1 (single isomer, unassigned) [Compound 59d, [4-fluoro-4-[2-[5H-imidazo[4,3-a]isoindol-5-yl]ethyl]cyclohexyl]methanol]
- IC50: > 1000 nM

SMILES: OC1(C2CCC(F)(CCC3c4ccccc4-c4cncn43)CC2)CC1 (single isomer, unassigned) [Compound 60a, 1-[4-fluoro-4-[2-[5H-imidazo[4,3-a]isoindol-5-yl]ethyl]cyclohexyl]cyclopropan-1-ol]
- IC50: < 100 nM

SMILES: OC1(C2CCC(F)(CCC3c4ccccc4-c4cncn43)CC2)CC1 (single isomer, unassigned) [Compound 60b, 1-[4-fluoro-4-[2-[5H-imidazo[4,3-a]isoindol-5-yl]ethyl]cyclohexyl]cyclopropan-1-ol]
- IC50: > 1000 nM

SMILES: OC1(C2CCC(F)(CCC3c4ccccc4-c4cncn43)CC2)CC1 (single isomer, unassigned) [Compound 60c, 1-[4-fluoro-4-[2-[5H-imidazo[4,3-a]isoindol-5-yl]ethyl]cyclohexyl]cyclopropan-1-ol]
- IC50: > 1000 nM
